Substitutions are numbered along the chain they refer to. Values after ≈ are worked out from the molar mass of the structure shown. Where a SMILES comes first, the peptide text is derived from it. Bridges are numbered along the chain shown (N, C = ends).
How the values were obtained:
[1] = target: T1, RGS4 A95C, -7C (Rattus norvegicus, UniProt P49799, C132A/C148A/C183A/C197A/C204A/C71A); assay: FCPIA, RGS4 A95C in the -7C; type: binding; settings: read-out: 5nd logIC50 (converted)
T1 construct: made in house
T1 sequence (P49799 52-205 C71A/C132A/C148A/C183A/C197A/C204A): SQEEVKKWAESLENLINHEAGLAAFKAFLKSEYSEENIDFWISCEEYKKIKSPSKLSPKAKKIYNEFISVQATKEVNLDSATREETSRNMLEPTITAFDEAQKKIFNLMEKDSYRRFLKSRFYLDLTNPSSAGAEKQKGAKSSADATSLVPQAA
Experimental: (§1) Figure 5 Dose curves of 5nd on various RGS4 cysteine mutants. Various concentrations of 5nd were tested for disruption of the RGS4-Gαo interaction for C95A (5 nM), or […], C71A (5nM) or C148A (5nM) (B), A95C in the -7C (5nM), or A132C in the -7C (5nM) (C), A71C in the -7C (5nM), or A148C in the -7C (5nM) (D) or the mutant with no cysteines in the domain (20 nM) or the C-terminus (20 nM) (E) in the FCPIA (mean ± S.E.M., n ≥ 3).
The previous experiments tested which cysteines are necessary for inhibition by 5nd. In an alternative approach, we added cysteines back to the -7C mutant to determine which might be sufficient for 5nd activity. […] Furthermore, Cys132 is involved in the actions but this is clearly not sufficient to explain them. Thus it is concluded that 5nd is at least partially non-selective in its cysteine modification.
Proteins were expressed, purified and labeled as described previously. The mutagenesis was done using the "QuickChange Multi Site-Directed Mutagenesis Kit" from Stratagene according to the manufacturer's protocol. The construct of RGS4 used in these studies is a maltose binding protein (MBP-) fusion protein of the RGS4 sequence from which the amphipathic N-terminal helix has been removed (i.e. MBP-RGS4Δ51N). For simplicity in the text, this will be referred to as RGS4. […]

[2] = target: T2, RGS4Δ51N (Rattus norvegicus, UniProt P49799); assay: MALDI MS analysis of covalent adduct with RGS4Δ51N; settings: 250 μM 5nd
T2 construct: MBP (N, cleaved yes); His6 (N, cleaved yes); made in house
T2 sequence (P49799 52-205 limits assumed): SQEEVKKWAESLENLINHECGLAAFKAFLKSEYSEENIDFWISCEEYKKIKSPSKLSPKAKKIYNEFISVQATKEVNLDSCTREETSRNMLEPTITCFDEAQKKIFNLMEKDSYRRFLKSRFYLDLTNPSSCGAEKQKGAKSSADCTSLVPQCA
Experimental: To directly test for the formation of a covalent adduct between 5nd and RGS4, we performed mass spectrometry (MS) analysis. The RGS4Δ51N protein, following TEV-protease cleavage from the MBP-His6 construct, was treated with 5nd at a 50:1 molar ratio. An adduct to the protein that is consistent with the mass of 5nd binding through a disulfide bridge was observed by MS (Figure 4, mass shift observed: Δ999.2 ± 1; expected: Δ998.5). […] There is also a small peak that may represent two peptides per RGS (observed: Δ1999.1 ± 2; expected: Δ1997.0).
Figure 4 MS analysis of RGS4 with and without 5nd pretreatment. RGS4Δ51N was cleaved from the MBP-His6 construct and subject to MALDI MS after pretreatment with DMSO (A) or 5nd (250 μM) (B). Both spectra show the region between 4,000 and 30,000 m/z and have the peak at 18158.8 or 18158.2 m/z for A and B, respectively, which corresponds to the cleaved RGS4Δ51N protein (black arrows). The spectrum in B also has a peak at 19158 m/z that corresponds to a peptide adduct (grey arrows). There is a very small peak at 20157.9 that may correspond to 2 peptides per RGS (grey arrows). The inset is a blow-up of the region between 17500 and 20500 m/z.
Total mass MS of 5 μM RGS4Δ51N was analyzed on a MicroMX MALDI MS instrument in positive ion mode with an accuracy of ± 0.1% after pretreatment with DMSO or 250 μM 5nd. […]

[3] = target: T3, RGS4 C132A (Rattus norvegicus, UniProt P49799, C132A); assay: FCPIA, RGS4 cysteine mutant C132A; type: binding; settings: read-out: 5nd logIC50 (converted)
T3 construct: made in house
T3 sequence (P49799 52-205 C132A limits assumed): T2 sequence (P49799 52-205 limits assumed) with C81A
Experimental: as §1
Proteins were expressed, purified and labeled as described previously. The mutagenesis was done using the "QuickChange Multi Site-Directed Mutagenesis Kit" from Stratagene according to the manufacturer's protocol. The construct of RGS4 used in these studies is a maltose binding protein (MBP-) fusion protein of the RGS4 sequence from which the amphipathic N-terminal helix has been removed (i.e. MBP-RGS4Δ51N). For simplicity in the text, this will be referred to as RGS4. All other RGS proteins were human sequences and were used as Mpb fusions: RGS7 RGS domain (aa: 305–453), RGS8 full length, RGS16 full length, and RGS19ΔC11 (amino acids 1–209). To cleave RGS4Δ51N from the MBP-His6 construct for MS analysis, MBP-His6-RGS4Δ51N was treated with 15% MBP-His6-TEV protease S219V [11] for 22 hours at 4°C and purified over a Ni-NTA column.
FCPIA was performed as previously published.

[4] = Solubility in buffer by HPLC; type: physicochemical
Experimental: Soluble peptides were synthesized on Rink resin, cleaved and cyclized as described previously. Peptide purity (at least 95%) and solubility were verified by high-performance liquid chromatography and correct mass was verified by MS analysis. ALogP calculations are from. Peptides were prepared as 5 mM stocks in DMSO.

CC(C)C[C@@H]1NC(=O)CNC(=O)[C@H](CCCCN)NC(=O)[C@@H](NC(=O)[C@H](Cc2c[nH]c3ccccc23)NC(=O)[C@@H](N)Cc2ccc(O)cc2)CSSC[C@@H](C(=O)N[C@@H](CCCCN)C(N)=O)NC1=O [Peptide 5nd, Tyr-Trp-c [Cys-Lys-Gly-Leu-Cys]-Lys-NH2, S-S] (H-YWCKGLCK-NH2; disulfide 3-7)
IC50 [1]: 263 µM | mass shift observed, adduct of one peptide per RGS ([2]; 5 μM RGS4Δ51N (50:1), expected Δ998.5): 999.2 ± 1 | mass shift observed, small peak that may represent two peptides per RGS ([2]; 5 μM RGS4Δ51N, expected Δ1997.0): 1999.1 ± 2 | IC50 [3]: 138 µM | solubility [4]: 463 µM (≈ 462 µg/mL)
